The experiment deals with T1, PI3Kγ (p101/p110γ protein) (Homo sapiens, UniProt P48736).
T1 construct: HA; made in house; host or cells: Spodoptera frugiperda (Sf9) cells, baculovirus co-infection
Briefly: PI3Kγ In Vitro Kinase Assay. The following applies: purified recombinant p101/p110γ with G protein β1/γ2 subunits; 20 μM ATP, 25 μM PIP2; 20 minutes at room temperature. It counts as biochemical. In a few lines: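 Reactions ran 20 min at room temperature, pairing lipid micelles (25 μM PIP2, 300 μM PE, 0.02% Na-cholate, 10 mM MgCl2) with 20 μM ATP including [γ-32P]ATP. The enzyme was recombinant p101/p110γ (2.7 nM) with G protein β1/γ2 (57.7 nM). [32P]PIP3 product was stopped with H3PO4, filtered and scintillation counted.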

Data on 34 molecules can be found in patent US7205295B2, “Benzoxazin-3-ones and derivatives thereof as therapeutic agents” (Warner-Lambert Company LLC, priority 2002, dated 2007).

pIC50: −log10 of the molar value.

T1 sequence (P48736 whole entry, species assumed): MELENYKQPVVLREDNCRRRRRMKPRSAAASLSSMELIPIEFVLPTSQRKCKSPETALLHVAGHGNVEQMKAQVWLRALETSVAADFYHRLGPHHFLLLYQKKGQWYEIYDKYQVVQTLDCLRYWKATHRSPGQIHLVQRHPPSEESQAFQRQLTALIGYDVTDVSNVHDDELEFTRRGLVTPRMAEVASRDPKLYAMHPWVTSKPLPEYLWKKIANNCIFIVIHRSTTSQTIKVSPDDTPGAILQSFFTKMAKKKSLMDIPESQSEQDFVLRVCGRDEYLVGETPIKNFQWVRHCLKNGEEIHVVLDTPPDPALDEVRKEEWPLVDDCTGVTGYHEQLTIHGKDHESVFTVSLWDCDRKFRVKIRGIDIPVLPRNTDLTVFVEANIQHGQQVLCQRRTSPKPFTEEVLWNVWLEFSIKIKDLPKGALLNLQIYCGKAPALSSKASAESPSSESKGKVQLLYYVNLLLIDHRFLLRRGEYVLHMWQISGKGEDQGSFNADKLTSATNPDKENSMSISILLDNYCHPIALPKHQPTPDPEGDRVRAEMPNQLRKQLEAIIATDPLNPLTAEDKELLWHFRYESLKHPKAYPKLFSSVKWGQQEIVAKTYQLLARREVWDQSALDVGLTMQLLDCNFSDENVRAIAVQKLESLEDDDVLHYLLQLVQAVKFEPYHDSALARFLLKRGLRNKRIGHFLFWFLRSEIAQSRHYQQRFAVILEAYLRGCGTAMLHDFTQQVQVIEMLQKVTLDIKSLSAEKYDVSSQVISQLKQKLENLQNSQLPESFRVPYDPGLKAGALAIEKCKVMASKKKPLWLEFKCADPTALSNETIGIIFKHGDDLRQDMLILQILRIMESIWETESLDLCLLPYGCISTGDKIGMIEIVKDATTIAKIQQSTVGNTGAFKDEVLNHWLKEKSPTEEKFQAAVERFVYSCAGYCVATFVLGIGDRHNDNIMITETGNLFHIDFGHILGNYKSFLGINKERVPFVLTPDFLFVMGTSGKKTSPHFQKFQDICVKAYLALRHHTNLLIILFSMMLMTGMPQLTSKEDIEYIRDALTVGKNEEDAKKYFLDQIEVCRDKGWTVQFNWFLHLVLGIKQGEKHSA
T1 sequence (Q8WYR1 whole entry partner, species assumed): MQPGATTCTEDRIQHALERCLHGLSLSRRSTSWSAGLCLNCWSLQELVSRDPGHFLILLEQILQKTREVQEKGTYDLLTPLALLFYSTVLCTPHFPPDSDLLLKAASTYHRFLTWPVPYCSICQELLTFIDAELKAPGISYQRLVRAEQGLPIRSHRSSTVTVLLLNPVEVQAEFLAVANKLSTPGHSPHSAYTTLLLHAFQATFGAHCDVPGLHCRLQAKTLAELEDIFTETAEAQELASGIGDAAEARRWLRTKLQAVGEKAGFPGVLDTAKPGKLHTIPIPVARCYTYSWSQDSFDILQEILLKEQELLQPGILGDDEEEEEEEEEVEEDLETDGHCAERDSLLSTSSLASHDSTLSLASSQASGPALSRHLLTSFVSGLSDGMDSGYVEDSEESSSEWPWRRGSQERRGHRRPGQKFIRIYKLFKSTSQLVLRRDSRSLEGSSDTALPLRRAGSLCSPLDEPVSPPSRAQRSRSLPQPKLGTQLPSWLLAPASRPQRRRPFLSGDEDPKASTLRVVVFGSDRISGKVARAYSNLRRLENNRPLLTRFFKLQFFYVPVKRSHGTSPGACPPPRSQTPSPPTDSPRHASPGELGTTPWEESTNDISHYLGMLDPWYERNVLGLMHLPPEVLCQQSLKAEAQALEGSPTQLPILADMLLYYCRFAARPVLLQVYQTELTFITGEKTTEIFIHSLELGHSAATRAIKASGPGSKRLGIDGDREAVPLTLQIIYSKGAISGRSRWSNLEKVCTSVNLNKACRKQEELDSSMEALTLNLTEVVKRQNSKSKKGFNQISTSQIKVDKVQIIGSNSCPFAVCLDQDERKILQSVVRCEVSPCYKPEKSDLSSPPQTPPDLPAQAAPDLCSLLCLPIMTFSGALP

What is called pIC50 is the IC50 on a negative log10 scale, so that one unit is a factor of ten. Take `O=C1NC(=S)SC1=Cc1ccc2c(c1)N(Cc1cccc(C(F)(F)F)c1)C(=O)CO2` [Example 157, 6-(4-Oxo-2-thioxo-thiazolidin-5-ylidenemethyl)-4-(3-trifluoromethyl-benzyl)-4H-1,4-benzoxazin-3-one]: the pIC50 was 7.68.
On to `O=C1NC(=S)SC1=Cc1ccc2c(c1)N(Cc1ccc(C(F)(F)F)cc1)C(=O)CO2` [Example 158, 6-(4-Oxo-2-thioxo-thiazolidin-5-ylidenemethyl)-4-(4-trifluoromethyl-benzyl)-4H-1,4-benzoxazin-3-one], for which the pIC50 was 7.55.
For `O=C1NC(=S)SC1=Cc1ccc2c(c1)N(Cc1ccccc1-c1ccccc1)C(=O)CO2` [Example 159, 4-Biphenyl-2-ylmethyl-6-(4-oxo-2-thioxo-thiazolidin-5-ylidenemethyl)-4H-1,4-benzoxazin-3-one], the pIC50 was 8.00.
As to `O=C1NC(=S)SC1=Cc1ccc2c(c1)N(CCCc1ccccc1)C(=O)CO2` [Example 160, 6-(4-Oxo-2-thioxo-thiazolidin-5-ylidenemethyl)-4-(3-phenyl-propyl)-4H-1,4-benzoxazin-3-one], the negative-log IC50 (pIC50) was 8.15.
The figure for `O=C1NC(=S)SC1=Cc1ccc2c(c1)N(CCCOc1ccccc1)C(=O)CO2` [Example 161, 6-(4-Oxo-2-thioxo-thiazolidin-5-ylidenemethyl)-4-(3-phenoxy-propyl)-4H-1,4-benzoxazin-3-one] is 8.40.
With `O=C1NC(=S)SC1=Cc1ccc2c(c1)N(Cc1ccc(C=Cc3ccccc3)cc1)C(=O)CO2` [Example 162, 6-(4-Oxo-2-thioxo-thiazolidin-5-ylidenemethyl)-4-(4-styryl-benzyl)-4H-1,4-benzoxazin-3-one], the pIC50 is 7.28.
The figure for `O=C1NC(=S)SC1=Cc1ccc2c(c1)N(Cc1ccc(OCc3ccccc3)cc1)C(=O)CO2` [Example 163, 4-(4-Benzyloxy-benzyl)-6-(4-oxo-2-thioxo-thiazolidin-5-ylidenemethyl)-4H-1,4-benzoxazin-3-one] is 7.52; for `O=C1NC(=S)SC1=Cc1ccc2c(c1)N(Cc1cccc(OC(F)F)c1)C(=O)CO2` [Example 164, 4-(3-Difluoromethoxy-benzyl)-6-(4-oxo-2-thioxo-thiazolidin-5-ylidenemethyl)-4H-1,4-benzoxazin-3-one] it is 7.89.
With `O=C1NC(=S)SC1=Cc1ccc2c(c1)N(Cc1cccc(SC(F)(F)F)c1)C(=O)CO2` [Example 165, 6-(4-Oxo-2-thioxo-thiazolidin-5-ylidenemethyl)-4-(3-trifluoromethylsulfanyl-benzyl)-4H-1,4-benzoxazin-3-one], the pIC50 is 7.82.
Regarding `O=C1NC(=S)SC1=Cc1ccc2c(c1)N(Cc1ccccc1OC(F)(F)F)C(=O)CO2` [Example 166, 6-(4-Oxo-2-thioxo-thiazolidin-5-ylidenemethyl)-4-(2-trifluoromethoxy-benzyl)-4H-1,4-benzoxazin-3-one], the pIC50 was 7.70.
As to `COc1ccc(CN2C(=O)COc3ccc(C=C4SC(=S)NC4=O)cc32)cc1C(F)(F)F` [Example 167, 4-(4-Methoxy-3-trifluoromethyl-benzyl)-6-(4-oxo-2-thioxo-thiazolidin-5-ylidenemethyl)-4H-1,4-benzoxazin-3-one], the negative logarithm of the IC50 (pIC50) is 8.00.
Consider `O=C1NC(=S)SC1=Cc1ccc2c(c1)N(Cc1ccc(SC(F)(F)F)cc1)C(=O)CO2` [Example 168, 6-(4-Oxo-2-thioxo-thiazolidin-5-ylidenemethyl)-4-(4-trifluoromethylsulfanyl-benzyl)-4H-1,4-benzoxazin-3-one], for which the pIC50 is 7.92.
The figure for `O=C1NC(=S)SC1=Cc1ccc2c(c1)N(Cc1ccccc1SC(F)(F)F)C(=O)CO2` [Example 169, 6-(4-Oxo-2-thioxo-thiazolidin-5-ylidenemethyl)-4-(2-trifluoromethylsulfanyl-benzyl)-4H-1,4-benzoxazin-3-one] is 8.10; for `O=C1NC(=S)SC1=Cc1ccc2c(c1)N(Cc1cccc(Oc3ccccc3)c1)C(=O)CO2` [Example 170, 6-(4-Oxo-2-thioxo-thiazolidin-5-ylidenemethyl)-4-(3-phenoxy-benzyl)-4H-1,4-benzoxazin-3-one] it is 8.05; for `O=C1NC(=S)SC1=Cc1ccc2c(c1)N(CC1CC3C=CC1C3)C(=O)CO2` (stereo not shown) [Example 171, 4-Bicyclo[2.2.1]hept-5-en-2-ylmethyl-6-(4-oxo-2-thioxo-thiazolidin-5-ylidenemethyl)-4H-1,4-benzoxazin-3-one] it is 7.82.
In the case of `NC(=O)c1cccc(CN2C(=O)COc3ccc(C=C4SC(=S)NC4=O)cc32)c1` [Example 172, 3-[3-Oxo-6-(4-oxo-2-thioxo-thiazolidin-5-ylidenemethyl)-2,3-dihydro-1,4-benzoxazin-4-ylmethyl]-benzamide], the negative-log IC50 (pIC50) is 6.84.
The figure for `CC(CN1C(=O)COc2ccc(C=C3SC(=S)NC3=O)cc21)c1ccccc1` (stereo not shown) [Example 173, 6-(4-Oxo-2-thioxo-thiazolidin-5-ylidenemethyl)-4-(2-phenyl-propyl)-4H-1,4-benzoxazin-3-one] is 7.41; for `O=C1NC(=S)SC1=Cc1ccc2c(c1)N(CCCCc1ccccc1)C(=O)CO2` [Example 174, 6-(4-Oxo-2-thioxo-thiazolidin-5-ylidenemethyl)-4-(4-phenyl-butyl)-4H-1,4-benzoxazin-3-one] it is 8.70.
Turning to `O=C1NC(=S)SC1=Cc1ccc2c(c1)N(CCCCCc1ccccc1)C(=O)CO2` [Example 175, 6-(4-Oxo-2-thioxo-thiazolidin-5-ylidenemethyl)-4-(5-phenyl-pentyl)-4H-1,4-benzoxazin-3-one], the negative-log IC50 (pIC50) was 8.40.
The result for `NC(=O)c1ccc(CN2C(=O)COc3ccc(C=C4SC(=S)NC4=O)cc32)cc1` [Example 176, 4-[3-Oxo-6-(4-oxo-2-thioxo-thiazolidin-5-ylidenemethyl)-2,3-dihydro-1,4-benzoxazin-4-ylmethyl]-benzamide] reads 7.23.
For `CC(=O)Nc1ccc(CN2C(=O)COc3ccc(C=C4SC(=S)NC4=O)cc32)cc1` [Example 177, N-{4-[3-Oxo-6-(4-oxo-2-thioxo-thiazolidin-5-ylidenemethyl)-2,3-dihydro-1,4-benzoxazin-4-ylmethyl]-phenyl}-acetamide], the pIC50 is 7.60.
As for `O=C1NC(=S)SC1=Cc1ccc2c(c1)N(Cc1ccc(Cl)c(Cl)c1)C(=O)CO2` [Example 178, 4-(3,4-Dichloro-benzyl)-6-(4-oxo-2-thioxo-thiazolidin-5-ylidenemethyl)-4H-1,4-benzoxazin-3-one], the pIC50 is 8.40.
On to `O=C1NC(=S)SC1=Cc1ccc2c(c1)N(Cc1ccc(Cl)cc1)C(=O)CO2` [Example 179, 4-(4-Chloro-benzyl)-6-(4-oxo-2-thioxo-thiazolidin-5-ylidenemethyl)-4H-1,4-benzoxazin-3-one], for which the pIC50 is 8.15.
The result for `O=C1NC(=S)SC1=Cc1ccc2c(c1)N(Cc1ccccc1)C(=O)CO2` [Example 180, 4-Benzyl-6-(4-oxo-2-thioxo-thiazolidin-5-ylidenemethyl)-4H-1,4-benzoxazin-3-one] reads 8.05.
With `Cc1cc(C)cc(CN2C(=O)COc3ccc(C=C4SC(=S)NC4=O)cc32)c1` [Example 181, 4-(3,5-Dimethyl-benzyl)-6-(4-oxo-2-thioxo-thiazolidin-5-ylidenemethyl)-4H-1,4-benzoxazin-3-one], the pIC50 is 8.00.
For the molecule `COc1ccc(CN2C(=O)COc3ccc(C=C4SC(=S)NC4=O)cc32)cc1` [Example 182, 4-(4-Methoxy-benzyl)-6-(4-oxo-2-thioxo-thiazolidin-5-ylidenemethyl)-4H-1,4-benzoxazin-3-one], the negative-log IC50 (pIC50) was 6.78.
In the case of `O=C1NC(=S)SC1=Cc1ccc2c(c1)N(Cc1ccc([N+](=O)[O-])cc1)C(=O)CO2` [Example 183, 4-(4-Nitro-benzyl)-6-(4-oxo-2-thioxo-thiazolidin-5-ylidenemethyl)-4H-1,4-benzoxazin-3-one], the pIC50 was 7.68.
On to `CC(C)(C)c1ccc(CN2C(=O)COc3ccc(C=C4SC(=S)NC4=O)cc32)cc1` [Example 184, 4-(4-tert-Butyl-benzyl)-6-(4-oxo-2-thioxo-thiazolidin-5-ylidenemethyl)-4H-1,4-benzoxazin-3-one], for which the negative logarithm of the IC50 (pIC50) is 8.52.
Take `O=C1NC(=S)SC1=Cc1ccc2c(c1)N(Cc1cc(C(F)(F)F)cc(C(F)(F)F)c1)C(=O)CO2` [Example 185, 4-(3,5-Bis-trifluoromethyl-benzyl)-6-(4-oxo-2-thioxo-thiazolidin-5-ylidenemethyl)-4H-1,4-benzoxazin-3-one]: the pIC50 is 6.99.
With `O=C1NC(=S)SC1=Cc1ccc2c(c1)N(CC(=O)c1ccc3c(c1)oc1ccccc13)C(=O)CO2` [Example 186, 4-(2-Dibenzofuran-3-yl-2-oxo-ethyl)-6-(4-oxo-2-thioxo-thiazolidin-5-ylidenemethyl)-4H-1,4-benzoxazin-3-one], the negative-log IC50 (pIC50) was 6.50.
For `O=C1NC(=S)SC1=Cc1ccc2c(c1)N(Cc1cc(F)cc(C(F)(F)F)c1)C(=O)CO2` [Example 187, 4-(3-Fluoro-5-trifluoromethyl-benzyl)-6-(4-oxo-2-thioxo-thiazolidin-5-ylidenemethyl)-4H-1,4-benzoxazin-3-one], the negative logarithm of the IC50 (pIC50) was 7.01.
Take `O=C1NC(=S)SC1=Cc1ccc2c(c1)N(Cc1ccc3ccccc3c1)C(=O)CO2` [Example 188, 4-Naphthalen-2-ylmethyl-6-(4-oxo-2-thioxo-thiazolidin-5-ylidenemethyl)-4H-1,4-benzoxazin-3-one]: the pIC50 is 7.70.
`O=C1NC(=S)SC1=Cc1cnc2c(c1)N(Cc1ccccc1)C(=O)CO2` [Example 189, 1-Benzyl-7-(4-oxo-2-thioxo-thiazolidin-5-ylidenemethyl)-1H-pyrido[2,3-b][1,4]oxazin-2-one; compound with ethane-1,2-diamine]: the pIC50 was 6.19.
For the molecule `CN1CC(=O)Nc2cc(C=C3SC(=S)NC3=O)ccc21` [Example 190, 4-Methyl-7-(4-oxo-2-thioxo-thiazolidin-5-ylidenemethyl)-3,4-dihydro-1H-quinoxalin-2-one], the pIC50 is 6.62.
